We go through 80 compounds from ChEMBL document CHEMBL3879893, “Nuclear transport modulators and uses thereof” (2011).

Structures are written as SMILES. The source made the active and inactive calls. The rule behind the calls is not given here.

The target of the first experiment is T1, Exportin-1 (Homo sapiens, UniProt O14980). The experiment can be described thus: Inhibition of Crm1 in human U2OS cells expressing GFP-fused HIV1 Rev assessed as decrease in nuclear export of GFP-fused HIV1 Rev after 1 hr by Hoechst 33258 staining-based assay. It counts as cell-based.
T1 sequence (O14980 whole entry, the tested form may be a part): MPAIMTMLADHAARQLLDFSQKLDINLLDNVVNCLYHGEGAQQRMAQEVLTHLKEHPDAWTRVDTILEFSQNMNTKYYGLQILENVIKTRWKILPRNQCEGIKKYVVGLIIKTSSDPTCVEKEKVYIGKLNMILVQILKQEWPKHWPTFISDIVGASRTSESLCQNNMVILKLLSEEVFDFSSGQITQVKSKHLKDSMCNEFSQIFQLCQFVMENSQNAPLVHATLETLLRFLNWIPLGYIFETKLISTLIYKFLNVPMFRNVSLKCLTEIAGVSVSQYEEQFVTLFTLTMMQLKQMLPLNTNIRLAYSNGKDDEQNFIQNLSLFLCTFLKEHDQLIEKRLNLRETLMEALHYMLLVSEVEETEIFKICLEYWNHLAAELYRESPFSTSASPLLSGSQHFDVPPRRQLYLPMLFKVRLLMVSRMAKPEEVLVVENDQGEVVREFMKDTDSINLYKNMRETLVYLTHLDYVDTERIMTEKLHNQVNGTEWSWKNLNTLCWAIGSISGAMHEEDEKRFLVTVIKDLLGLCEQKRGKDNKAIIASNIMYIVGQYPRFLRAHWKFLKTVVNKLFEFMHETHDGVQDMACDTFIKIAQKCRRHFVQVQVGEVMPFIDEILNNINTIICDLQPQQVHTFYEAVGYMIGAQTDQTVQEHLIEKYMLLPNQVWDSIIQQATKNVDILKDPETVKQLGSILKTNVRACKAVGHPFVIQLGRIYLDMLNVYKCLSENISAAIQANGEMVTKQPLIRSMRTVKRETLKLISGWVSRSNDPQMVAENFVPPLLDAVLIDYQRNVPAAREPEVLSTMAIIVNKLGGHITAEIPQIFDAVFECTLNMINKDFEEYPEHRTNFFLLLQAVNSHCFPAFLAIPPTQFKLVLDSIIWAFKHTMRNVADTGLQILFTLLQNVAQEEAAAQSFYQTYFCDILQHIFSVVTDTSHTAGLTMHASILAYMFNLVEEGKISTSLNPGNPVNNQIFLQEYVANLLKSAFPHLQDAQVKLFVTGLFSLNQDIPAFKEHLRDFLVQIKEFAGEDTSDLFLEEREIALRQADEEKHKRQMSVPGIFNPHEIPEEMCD
Conditions: not given
Usually IC50 stands for the concentration that gives 50% inhibition. `CC(C)OC(=O)/C=C\Cn1cnc(-c2cccc(Cl)c2)n1`: the IC50 lay within 1 to 10 µM.

Consider `COc1cc(-c2ncn(/C=C\C(=O)OC(C)C)n2)cc(C(F)(F)F)c1`, for which the IC50 was at most 1 µM.

In the case of `O=C(/C=C\n1cnc(-c2cccc(Cl)c2)n1)NC1CCCC1`, the IC50 is at least 10 µM.

Consider `CC(C)OC(=O)/C=C/Cn1cnc(-c2cccc(Cl)c2)n1`, for which the IC50 was in the range of 1 to 10 µM.

Consider `CC(C)OC(=O)/C=C\n1cnc(-c2cc(OCCN3CCCC3)cc(C(F)(F)F)c2)n1`, for which the IC50 is at most 1 µM.

For `O=C(/C=C\n1cnc(-c2cccc(Cl)c2)n1)OC1CCOCC1`, the IC50 was at most 1 µM.

Take `CCOC(=O)/C=C\n1cnc(-c2cccc(Cl)c2)n1`: the IC50 was at most 1 µM.

Consider `CCOC(=O)/C=C\n1cnc(-c2cc(Cl)cc(OC)c2)n1`, for which the IC50 was at most 1 µM.

With `CC(C)OC(=O)/C=C\n1cnc(-c2cc(OCCN(C)C)cc(C(F)(F)F)c2)n1`, the IC50 is at most 1 µM.

Consider `CC(C)Nc1cc(-c2ncn(/C=C\C(=O)OC(C)C)n2)cc(C(F)(F)F)n1`, for which the IC50 was at most 1 µM.

On to `CC(C)Nc1cc(-c2ncn(/C=C\C(=O)OC(C)C)n2)cc(Cl)n1`, for which the IC50 was at most 1 µM.

Regarding `O=C(/C=C\n1cnc(-c2cccc(Cl)c2)n1)OC1COC1`, the IC50 is at most 1 µM.

Turning to `CCOC(=O)/C=C/n1cnc(-c2cccc(Cl)c2)n1`, the IC50 is at least 10 µM.

Regarding `CCOC(=O)/C=C\n1cnc(-c2cc(F)cc(F)c2)n1`, the IC50 fell in the range of 1 to 10 µM.

On to `O=C(/C=C/n1cnc(-c2cccc(Cl)c2)n1)OC1CNC1`, for which the IC50 lay in the range of 1 to 10 µM.

On to `COc1ccc(-c2ncn(/C=C\C(=O)OC(C)C)n2)cc1Cl`, for which the IC50 lay in the range of 1 to 10 µM.

For `CC(C)OC(=O)/C=C\n1cnc(-c2csc(Br)n2)n1`, the IC50 was 1 to 10 µM.

Consider `O=C(/C=C\n1cnc(-c2cccc(Cl)c2)n1)OCC1CCCN1` (stereo unspecified), for which the IC50 lay in the range of 1 to 10 µM.

Take `CC(C)OC(=O)/C=C\n1cnc(-c2cncc(Cl)c2)n1`: the IC50 is at most 1 µM.

As to `CCOC(=O)/C=C\n1cnc(-c2cc(Cl)cc(Cl)c2)n1`, the IC50 was at most 1 µM.

On to `CC(C)Oc1cc(-c2ncn(/C=C\C(=O)OCc3ccccn3)n2)cc(C(F)(F)F)c1`, for which the IC50 is at most 1 µM.

`CC(C)Oc1cc(-c2ncn(/C=C\C(=O)OCc3ccccn3)n2)cc(C(F)(F)F)n1`: the IC50 is at most 1 µM.

As to `CC(C)OC(=O)/C=C\c1n[nH]c(-c2cc(Cl)cc(Cl)c2)n1`, the IC50 fell in the range of 1 to 10 µM.

As for `COC(=O)/C=C\n1cnc(-c2cc(Cl)cc(OC)c2)n1`, the IC50 was at most 1 µM.

Take `CC(C)OC(=O)/C=C\n1cnc(-c2cc(Cl)cc(OC(C)C)c2)n1`: the IC50 is at most 1 µM.

As for `FC(F)(F)/C=C\n1cnc(-c2cccc(Cl)c2)n1`, the IC50 fell in the range of 1 to 10 µM.

For the compound `CC(C)OC(=O)/C=C/n1cnc(-c2cccc(Cl)c2)n1`, the IC50 is at least 10 µM.

As for `O=C(/C=C\n1cnc(-c2cccc(Cl)c2)n1)OC1CCCC1`, the IC50 is at most 1 µM.

With `O=C(/C=C\n1cnc(-c2cccc(Cl)c2)n1)OC1CCOC1` (stereo unspecified), the IC50 is at most 1 µM.

Turning to `N#C/C=C\n1cnc(-c2cccc(Cl)c2)n1`, the IC50 is at most 1 µM.

`O=C(/C=C\n1cnc(-c2cccc(Cl)c2)n1)N1CCC1`: the IC50 was at most 1 µM.

As to `CC(C)OC(=O)/C=C\n1cnc(-c2cc(OC(C)C)cc(C(F)(F)F)c2)n1`, the IC50 is at most 1 µM.

On to `CC(C)OC(=O)/C=C\n1cnc(-c2cc(Cl)cc(Oc3ccc(Cl)cc3)c2)n1`, for which the IC50 lay within 1 to 10 µM.

`COc1cc(-c2ncn(/C=C\C(=O)OC3CNC3)n2)cc(C(F)(F)F)c1`: the half-inhibitory concentration (IC50) is at most 1 µM.

On to `CC(C)OC(=O)/C=C\n1cnc(-c2cc(Cl)cc(OC(F)(F)F)c2)n1`, for which the IC50 was at most 1 µM.

Consider `O=C(/C=C\n1cnc(-c2cccc(Cl)c2)n1)OC1CCCCC1`, for which the IC50 is at most 1 µM.

On to `CC(C)OC(=O)/C=C\n1cnc(-c2cc(OC(C)C)nc(C(F)(F)F)c2)n1`, for which the IC50 is at most 1 µM.

For `CC(C)OC(=O)/C=C\n1cnc(-c2ccc(Oc3ccc(Cl)cc3)cc2)n1`, the IC50 is 1 to 10 µM.

`CC(C)OC(=O)/C=C\n1cnc(-c2ccc(-c3ccccc3)c(F)c2)n1`: the IC50 was at least 10 µM.

For `COc1ccc(Cl)cc1-c1ncn(/C=C\C(=O)OC(C)C)n1`, the IC50 was at most 1 µM.

As for `CC(C)(C)OC(=O)Nc1ccc(NC(=O)/C=C/n2cnc(-c3cccc(Cl)c3)n2)cc1`, the IC50 was at least 10 µM.

In the case of `CC(C)OC(=O)/C=C\n1cnc(-c2cc(Cl)nc(Cl)c2)n1`, the IC50 was at most 1 µM.

`CC(C)OC(=O)/C=C\n1cnc(-c2ccc(Cl)c(Cl)c2)n1`: the IC50 is at most 1 µM.

`C[S+]([O-])/C=C\n1cnc(-c2cccc(Cl)c2)n1` (stereo unspecified): the IC50 was in the range of 1 to 10 µM.

Turning to `CC(C)(C)OC(=O)/C=C/n1cnc(-c2cccc(Cl)c2)n1`, the IC50 is at least 10 µM.

Consider `O=C(/C=C\n1cnc(-c2cccc(Cl)c2)n1)OC1CCC1`, for which the IC50 was at most 1 µM.

On to `COc1cc(Cl)cc(-c2ncn(/C=C\C(=O)OC(C)C)n2)c1`, for which the IC50 is at most 1 µM.

For `O=C(/C=C\n1cnc(-c2cccc(Cl)c2)n1)OCc1ccccn1`, the IC50 was at most 1 µM.

For the compound `CC(C)OC(=O)/C=C\n1cnc(-c2csc(Cl)c2)n1`, the IC50 is at most 1 µM.

In the case of `O=C(/C=C\n1cnc(-c2cccc(Cl)c2)n1)OCc1cnc[nH]1`, the IC50 fell in the range of 1 to 10 µM.

On to `CC(C)OC(=O)/C=C\n1cnc(-c2cc(Cl)nc(OC(C)C)c2)n1`, for which the IC50 is at most 1 µM.

As for `COc1cc(-c2ncn(/C=C\C(=O)OC(C)C)n2)cc(Cl)n1`, the IC50 was at most 1 µM.

On to `CS(=O)(=O)/C=C\n1cnc(-c2cccc(Cl)c2)n1`, for which the IC50 was at most 1 µM.

As for `CC(C)OC(=O)/C=C\n1cnc(-c2cccc(C(F)(F)F)c2)n1`, the IC50 is at most 1 µM.

In the case of `CC(C)OC(=O)/C=C\n1cnc(-c2cccc(Cl)c2)n1`, the IC50 is at most 1 µM.

For the compound `CC(C)OC(=O)/C=C\n1cnc(-c2cc(Cl)ccc2N)n1`, the IC50 is at most 1 µM.

Turning to `CC(C)OC(=O)/C=C\n1cnc(-c2cc(O/C=C/C(=O)OC(C)C)cc(C(F)(F)F)c2)n1`, the IC50 is 1 to 10 µM.

Take `CC(C)Oc1cc(-c2ncn(/C=C\C#N)n2)cc(C(F)(F)F)c1`: the IC50 was at most 1 µM.

As to `CC(C)OC(=O)/C=C\n1cnc(-c2cc(C#N)cc(OC(C)C)c2)n1`, the IC50 is at most 1 µM.

Regarding `CN(C(=O)/C=C\c1nnc(-c2cccc(Cl)c2)[nH]1)c1ccccc1`, the half-maximal inhibitory concentration (IC50) was at least 10 µM.

Consider `Nc1ccc(NC(=O)/C=C/n2cnc(-c3cccc(Cl)c3)n2)cc1`, for which the IC50 is at least 10 µM.

Regarding `CC(C)OC(=O)/C=C\c1n[nH]c(-c2cccc(Cl)c2)n1`, the IC50 was at most 1 µM.

Take `O=C(/C=C\n1cnc(-c2cccc(Cl)c2)n1)OC1CNC1`: the IC50 was at most 1 µM.

Regarding `CC(C)(C)OC(=O)/C=C\n1cnc(-c2cccc(Cl)c2)n1`, the IC50 was 1 to 10 µM.

`O=C(/C=C/n1cnc(-c2cccc(Cl)c2)n1)Nc1cccc(Cl)c1`: the IC50 is at least 10 µM.

In the case of `COc1cc(OC)cc(-c2ncn(/C=C\C(=O)OC(C)C)n2)c1`, the IC50 is at most 1 µM.

As for `N#C/C=C/n1cnc(-c2cccc(Cl)c2)n1`, the IC50 was 1 to 10 µM.

Turning to `CC(C)OC(=O)/C=C\n1cnc(-c2cc(NC3CCC3)nc(C(F)(F)F)c2)n1`, the IC50 is at most 1 µM.

As for `CC(C)OC(=O)/C=C\c1nnc(-c2cccc(F)c2)[nH]1`, the IC50 was in the range of 1 to 10 µM.

Consider `CC(C)OC(=O)/C=C/n1cnc(-c2cc(OCCN3CCCC3)cc(C(F)(F)F)c2)n1`, for which the IC50 is at least 10 µM.

`O=C(/C=C\n1cnc(-c2cccc(Cl)c2)n1)OC1COC(=O)C1` (stereo unspecified): the IC50 fell in the range of 1 to 10 µM.

Regarding `CC(C)OC(=O)/C=C\n1cnc(-c2csc(Cl)n2)n1`, the IC50 is 1 to 10 µM.

On to `COc1ccc(NC(=O)/C=C/n2cnc(-c3cccc(Cl)c3)n2)cc1`, for which the IC50 was at least 10 µM.

Turning to `CC(C)OC(=O)/C=C/n1cnc(-c2cc(OCCN(C)C)cc(C(F)(F)F)c2)n1`, the 50% inhibitory concentration (IC50) is 1 to 10 µM.

For `O=C(/C=C\n1cnc(-c2cc(Cl)nc(Cl)c2)n1)OC1CNC1`, the IC50 is at most 1 µM.

In the case of `O=C(/C=C\c1nnc(-c2cccc(Cl)c2)[nH]1)Nc1ccccc1`, the IC50 is at least 10 µM.

With `COCCOc1cc(Cl)cc(-c2ncn(/C=C\C(=O)OC(C)C)n2)c1`, the IC50 was at most 1 µM.

`CNc1cc(Cl)cc(-c2ncn(/C=C\C(=O)OC(C)C)n2)c1`: the IC50 was at most 1 µM.

In the case of `Cc1cccc(-c2ncn(/C=C\C(=O)OC(C)C)n2)c1`, the IC50 is at most 1 µM.

The next experiment deals with T1, Exportin-1. The experiment can be described thus: Inhibition of Crm1 in human H929 cells assessed as decrease in nuclear export of topoisomerase-2 by measuring caspase-3 levels at 0.1 to 10 uM preincubated for 16 hrs followed by addition of topoisomerase-2 inhibitor doxorubicin measured after 4 hrs by anti-caspase-3 assay.
Conditions: not given
It counts as cell-based.
With `CC(C)OC(=O)/C=C\n1cnc(-c2cccc(Cl)c2)n1`, the inhibition entry is “Active”.

Test system in the next experiment: not listed separately
The experiment can be described thus: Antitumor activity against 350 mm'3 human HCT116 cells xenografted in mouse assessed as tumor growth inhibition at 30 mg/kg, iv qd administered for 2 days measured after day 24 relative to control. It counts as functional. Particulars: HCT-116, iv, read-out: TGI.
As to `CCc1c2c(nc3ccc(OC(=O)N4CCC(N5CCCCC5)CC4)cc13)-c1cc3c(c(=O)n1C2)COC(=O)[C@]3(O)CC` [IRINOTECAN], the inhibition in vivo at 30 mg/kg came out at 78%.
